Measured values taken from patent US9266815B2, “Anti-metastatic agents predicated upon polyamine macrocyclic conjugates” (University of Central Florida Research Foundation, Inc., priority 2012, dated 2016).
Entries after “also recorded” stand apart in the source; their conditions may differ.

Key:
[1] = test system: CHO-MG* cells; assay: Cytotoxicity (MTS cell growth) in CHO-MG* cells; assay type: cell-based, Chinese hamster; settings: for IC50: 48 h at 37° C., 1 mM AG 24 h prior to drug addition, triplicate
From the text: (§1) CHO cells were chosen along with a mutant cell line (CHO-MG*) to comment on how the synthetic conjugates gain access to the cells.^2c-e, 6 As discussed earlier, the CHO-MG* cell line is polyamine-transport deficient and represents a model for alternative modes of entry (other than PTS) including passive diffusion or use of another transporter. The CHO cell line on the other hand, represents cells with high polyamine transport activity.^7b, 10c A comparison of toxicity in these two CHO cell lines allowed for a screen that would detect selective use of the polyamine transporter. High utilization of the PTS would be very toxic to CHO cells. However, the CHO-MG* cells should be less sensitive to drugs which target the PTS.^2c-e, 6 Ultimately, a CHO-MG*/CHO IC50 ratio was determined to assess PTS selectivity. A high IC50 ratio (>>2) would be observed for PTS selective compounds.
(§2) CHO and CHO-MG* cells were grown in RPMI 1640 medium supplemented with 10% fetal calf serum and 1% penicillin/streptomycin. Note: the media must contain L-proline (2 μg/mL) for proper growth of the CHO-MG* cells. L3.6p1 cells were grown in RPMI 1640 medium supplemented with 10% FBS and 1% penicillin/streptomycin. All cells were grown at 37° C. under a humidified 5% CO2 atmosphere Aminoguanidine (1 mM for CHO and CHO-MG*, and 250 μM for L3.6p1) was added to the growth medium to prevent oxidation of the drugs by the enzyme (bovine serum amine oxidase) present in calf serum. Cells in early to mid-log phase growth were used.
(§3) Cell growth was assayed in sterile 96-well microtiter plates (Costar 3599, Corning, N.Y., USA). CHO and CHO-MG* cells were plated at 10,000 cells/mL. L3.6p1 cells were plated at 5,000 cells/mL. Drug solutions (10 μL per well) of appropriate concentration were added after an overnight incubation for each CHO cell line (90 μL of cell suspension). After exposure to the drug for 48 h, cell growth was determined by measuring formazan formation from 3-(4,5-dimethylthiazol-2-yl)-5-(3-carboxymethoxyphenyl)-2-(4-sulphenyl)-2H-tetrazolium, inner salt (MTS) using a SynergyMx BioTek microplate reader for absorbance ([…]) measurements.^23 A 4 h incubation period was used for the MTS assay in accordance with the manufacturer's protocol.^23

[2] = test system: CHO cells; assay: Cytotoxicity (MTS cell growth) in CHO cells; assay type: cell-based, Chinese hamster; settings: 48 h at 37° C., 1 mM AG 24 h prior to drug addition, triplicate
From the text: as §1, §2, §3

[3] = test system: L3.6pl cells; assay: Cytotoxicity IC50 and MTD determination in L3.6pl cells; assay type: cell-based; settings: for IC50 / L3.6pl MTD: 48 h at 37° C.; for IC50: 250 μM AG 24 h prior to drug addition; for L3.6pl MTD: maximum tolerated dose, 250 μM AG; for MTD higher than 0.6 μM (MTD of 44a): relative to parent 44a
Protocol: The MTD (Maximum tolerated dose) was determined for each of these compounds (Table III-2).
Note: the media must contain L-proline (2 μg/mL) for proper growth of the CHO-MG* cells. […] Cells in early to mid-log phase growth were used.
CHO and CHO-MG* cells were plated at 10,000 cells/mL. L3.6p1 cells were plated at 5,000 cells/mL. Drug solutions (10 μL per well) of appropriate concentration were added after an overnight incubation for each CHO cell line (90 μL of cell suspension).

[4] = test system: L3.6pl cells; assay: Wound healing assay (cell migration); assay type: cell-based, human; settings: for anti-migration ability relative to parent 44a (in words): dosed at 0.6 μM
Protocol: A wound healing assay was employed to evaluate the anti-migration properties of compounds 44a-b, 46a-b, and 47a-b in L3.6p1 cells. This involved growing a monolayer of L3.6p1 cells and then scraping the monolayer with a sterile pipet tip to create a cell free zone in the middle of the well. The experiment was run in 96-well plate format. Wound healing was measured by time-course imaging of each well using a computer-controlled microscope with an x,y,z stage which allowed for reproducible imaging over time. Each drug was evaluated for its dose-dependent inhibition of cell migration. Each compound was evaluated at its own MTD in order to avoid cytotoxic effects which are well known to bias migration studies.^37a In addition, each compound was also tested at the MTD of 44a (Motu33) in order to directly compare the potency of these compounds at the same concentration.
Taking pictures of each wound needed to be done under a 2.5× objective in order to view ˜95% of each well. […] This problem was alleviated through the use of the ImageJ software.^47 This software allowed for enhancing the contrast between areas which were occupied by cells versus areas devoid of cells. In this regard, the software was able to accurately define the edges of each boundary. These capabilities then allowed for accurate area calculations which are seen in Table 3.
Anti-migratory properties were assayed in 96-well microtiter plates (Costar 3599, Corning, N.Y., USA). A stock suspension of L3.6p1 cells (5.5×10^5 cells/mL) was prepared. L3.6p1 cells (90 μL of stock/well) were plated and allowed to grow to a confluent monolayer (48 h). Each well was then scraped with a 1 μL sterile pipet tip, photographed with a Zeiss Stemi Microscope (2.5× objective) (time=0), and then allowed to incubate for an additional 48 h period (time=48 h). Over this 48 h period, the untreated control migrated to fill 50% of the original wound. At time zero, the respective drug solutions (10 μL) were added and cell migration monitored after 48 h incubation at 37° C. with 5% CO2. After drug exposure for 48 h, respective time=48 h photographs were taken by the Zeiss Stemi Microscope. These pictures (time=0 and time=48 h) were then compared and analyzed through the use of ImageJ software^47 by calculating the average area invaded by L3.6p1 cells.

[5] = test system: pancreatic tumor (L3.6p1 cells); assay: Mouse pancreatic tumor model, tumor size; assay type: in vivo; settings: for tumor volume size: versus untreated control, preliminary data not shown
From the text: Further, the present inventors have found a dramatic increase in the therapeutic window available to these new agents relative to the parent compound 44a. These large carbocycles (e.g., the macrocyclic core) and carbocycle-alkyl groups (e.g., cyclopentadecyl-CH2— is preferred) represent a new N-substituent which imparts the unique properties of anti-migration activity and lower toxicity. Advantageously, the compounds described herein may be administered alone or in combination with known and/or new therapies (e.g., other chemotherapeutic agents or radiation) to help treat or prevent the spread of primary tumors and allow time for the intervention (e.g., other chemotherapeutic) to work on the primary tumor.
Thus, this represents an exciting unexpected discovery that not only can compounds of the present invention reduce metastasis, they reduce the tumor itself.

[6] = test system: human pancreatic cancer L3.6p1 cells; assay: Orthotopic mouse model, liver micrometastases; assay type: in vivo
Protocol: In one embodiment, the cancer is breast cancer. In another embodiment, the cancer is pancreatic cancer. […] The control was saline solution. The respective drugs (44a and 45) were dosed at their respective maximum tolerated dose (MTD).

[7] = test system: yeast cells; settings: 60 μM; cited from earlier work
[8] = test system: MDA-231 breast carcinoma cells; settings: cited from earlier work
[9] = test system: MDA-MB-231 cells; settings: cited from earlier work
[10] = test system: original CHO-MG line and CHO; settings: reported earlier (ref 2f); cited from earlier work
[11] = 2 μM (MTD of the conjugate), 48 h
[12] = Homo sapiens, 0.6 μM, 48 h, 250 μM AG

| Compound | IC50 ([1]; Cricetulus griseus, CHO-MG) | IC50 ([2]; Cricetulus griseus, CHO) | IC50 ([3]; Homo sapiens, L3.6pl) | L3.6pl MTD [3] | anti-migration property (in words) [4] | % Cell Migration ([4]; 0.6 μM, 48 h, 250 μM AG) | % Cell Migration [4, 11] | inhibition at 0.6 µM [4, 12] | MTD higher than 0.6 μM (MTD of 44a) ([3]; L3.6pl) | anti-migration ability relative to parent 44a (in words) [4] | tumor volume size [5] | other results |
| --- | --- | --- | --- | --- | --- | --- | --- | --- | --- | --- | --- | --- |
| NCCCCNCCCCNC1CCCCCCCCCCCCCC1 [Compound 46b, N^1-(4-Aminobutyl)-N^4-cyclopentadecylbutane-1,4-diamine] | 5.18 µM | 4.53 µM | 2.82 µM | 2.0 µM | have this anti-migration property | 32.5 (±4.3) % | 31.6 (±0.5) % | 31.4% |  |  |  | inhibition at 2 µM ([4]; Homo sapiens, L3.6pl, 2 μM (MTD of the conjugate), 48 h): 33.4% |
| NCCCNCCCNC1CCCCCCCCCCCCCC1 [Compound 46a, N(3-Aminopropyl)-N3-cyclopentadecylpropane-1,3-diamine] |  |  |  | 2.0 µM | have this anti-migration property | 38.2 (±2.5) % | 31.8 (±0.1) % |  |  |  |  | IC50 [1]: 5.95 µM; IC50 [2]: 2.84 µM; IC50 [3]: 2.81 µM; % Cell Migration Inhibition ([4]; 0.6 μM, 48 h, 250 μM AG): 19.3 (±1.3) %; % Cell Migration Inhibition [4, 11]: 32.9 (±0.1) % |
| NCCCNCCCNCC1CCCCCCCCCCCCCC1 [Compound 47a, N^1-(3-aminopropyl)-N^3-(cyclopentadecylmethyl)propane-1,3-diamine] | 87.3 µM | 82.9 µM | 89.4 µM | 80 µM | have this anti-migration property | 29.2 (±3.2) % |  | 38.4% | > 130 fold | highest inhibition; also recorded: dramatic increase in anti-migration ability; also recorded: significant improvement in anti-migration ability | dramatic decreases in tumor volume size | less toxic than the parent (44a) ([3]; relative to 44a): about 130 times; % Cell Migration ([4]; 80 μM (MTD of the conjugate), 48 h): 26.2 (±1.3) %; inhibition at 80 µM ([4]; Homo sapiens, L3.6pl, 80 μM (MTD of the conjugate), 48 h): 44.8%; tumor growth in vivo ([5]; mouse studies, preliminary): inhibit tumor growth in vivo |
| NCCCNCCCN1CCCCCCCCCCCCCC1 [Compound 44a, dihydromotuporamine C, reference compound] | 2.96 µM | 2.9 µM | 0.99 µM | 0.6 µM |  | 37.8 (±3.3) % |  | 20.3% |  |  | dramatic decreases in tumor volume size | CHO-MG*/CHO IC50 ratio ([1]; measure of PTS selectivity): 1; degree of metastasis (liver micrometastases per slide) ([6]; dosed at MTD, control saline, FIG. 7): effective in reducing the degree of metastasis; growth of yeast cells [7]: fully inhibit the growth; cytotoxicity (in words) [8]: highly cytotoxic; anti-invasive properties (in words) [9]: good anti-invasive properties; IC50 ratio in the original CHO-MG line and CHO [10]: 1 |
| CCN(CCCNCCCN)Cc1c2ccccc2cc2ccccc12 [AntNEt33] |  |  |  |  |  |  |  |  |  |  |  | anti-metastatic properties in vivo ([6]; compared with dihydromotuporamine C): failed to mimic the anti-metastatic properties |
| NCCCCNCCCCNCC1CCCCCCCCCCCCCC1 [Compound 47b, N^1-(4-aminobutyl)-N^4-(cyclopentadecylmethyl)butane-1,4-diamine] | 45.5 µM | 47.8 µM | 48.7 µM | 40 µM |  | 33.4 (±1.8) % |  | 29.6% | > 60 fold | dramatic increase in anti-migration ability |  | % Cell Migration ([4]; 40 μM (MTD of the conjugate), 48 h): 25.9 (±2.1) %; inhibition at 40 µM ([4]; Homo sapiens, L3.6pl, 40 μM (MTD of the conjugate), 48 h): 45.3% |
